Structures are written as SMILES.

The target of the assay is T1, δ receptor (delta opioid receptor) (Rattus norvegicus, UniProt P33533).
T1 construct: Rat Brain Membranes were Used as a Receptor Preparation; from tissue; host or cells: rat brain membranes
T1 sequence (P33533 whole entry): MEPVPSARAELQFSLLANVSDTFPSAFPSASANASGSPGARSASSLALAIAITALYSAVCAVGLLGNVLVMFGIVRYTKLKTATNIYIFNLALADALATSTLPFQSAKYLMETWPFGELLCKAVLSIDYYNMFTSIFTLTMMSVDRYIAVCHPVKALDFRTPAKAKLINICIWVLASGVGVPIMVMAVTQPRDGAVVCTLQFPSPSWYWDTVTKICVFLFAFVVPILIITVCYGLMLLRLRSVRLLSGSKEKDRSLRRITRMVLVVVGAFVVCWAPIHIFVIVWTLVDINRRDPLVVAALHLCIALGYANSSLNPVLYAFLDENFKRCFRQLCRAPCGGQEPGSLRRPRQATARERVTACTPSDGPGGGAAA
The assay is described as follows: δ receptor binding test (3H-DPDPE displacement). To be noted: rat brain membranes, 3H-DPDPE 1.5 nM, 25° C., 70 minutes; read-out: IC50 (concentration at which binding of 3H-DPDPE is inhibited by 50%). As to the method: Rat Brain Membranes were Used as a Receptor Preparation.
^3H-DPDPE ([D-Pen^2,D-Pen^5]-Enkephalin) was used as ^3H-labeled ligand.
Binding reaction using the ^3H-labeled ligand was carried out by the following method.
Preparation of Receptor Membranes:
Rat brain was homogenized in 50 mM Tris-HCl buffer (pH 7.4) containing 10 mM MgCl2 and 1 mM EDTA, and centrifuged at 48,000×g for 20 min, and the precipitate was washed once with Tris-HCl buffer. The washed precipitate was suspended in 50 mM Tris-HCl buffer (pH 7.4) containing 10 mM MgCl2 and 1 mM EDTA, to obtain a membrane preparation.
Delta Opioid Receptor Binding Test:
The membrane preparation (1 mg protein/ml), H-DPDPE (1.5 nM) and a test drug were reacted at 25° C. for 70 minutes. After completion of the reaction, the reaction mixture was filtered by suction through a glass filter (GF/B) treated with 0.3% polyethylene imine, and the glass filter was washed three times with 50 mM Tris-HCl buffer (pH 7.4) containing 10 mM MgCl2 and 1 mM EDTA. After the washing, scintillation cocktail was added to the filters, and the radioactivity of the filter was measured in a liquid scintillation counter.
The amount of ^3H-DPDPE bound when the reaction was carried out in the presence of 10 μM naltrindole was taken as the degree of nonspecific binding of ^3H-DPDPE, and the difference between the total degree of ^3H-DPDPE binding and the degree of nonspecific ^3H-DPDPE binding was taken as the degree of specific ^3H-DPDPE binding. An inhibition curve was obtained by reacting a definite concentration (1.5 nM) of ^3H-DPDPE with various concentrations of each test drug under the conditions described above. A concentration of the test drug at which binding of ^3H-DPDPE is inhibited by 50% (IC50) was determined from the inhibition curve.
On to `Cc1cc(N2CCC(CCC(=O)O)CC2)c2c(C)cn(-c3c(C)cc(Cl)cc3C)c2n1` [Compound 1-022, 3-{1-[1-(4-chloro-2,6-dimethyl-phenyl)-3,6-dimethyl-1H-pyrrolo[2,3-b]pyridin-4-yl]-piperidin-4-yl}-propionic acid], for which the IC50 is at most 500 nM. As for `Cc1cc(N2CCC(CC(=O)O)CC2)c2c(C)cn(-c3c(Cl)cc(Cl)cc3Cl)c2n1` [Compound 1-011, {1-[3,6-dimethyl-1-(2,4,6-trichloro-phenyl)-1H-pyrrolo[2,3-b]pyridin-4-yl]-piperidin-4-yl}-acetic acid], the IC50 was at most 500 nM. Regarding `Cc1cc(N2CCC(CC(=O)O)CC2)c2c(C)cn(-c3c(C)cc(Cl)cc3C)c2n1` [Compound 1-006, {1-[1-(4-chloro-2,6-dimethyl-phenyl)-3,6-dimethyl-1H-pyrrolo[2,3-b]pyridin-4-yl]-piperidin-4-yl}-acetic acid], the IC50 was at most 500 nM.

In the case of `Cc1cc(N2CCC(CCC(=O)O)CC2)c2c(C)c(C)n(-c3c(C)cc(Br)cc3C)c2n1` [Compound 1-019, 3-{1-[1-(4-bromo-2,6-dimethyl-phenyl)-2,3,6-trimethyl-1H-pyrrolo[2,3-b]pyridin-4-yl]-piperidin-4-yl}-propionic acid], the IC50 is at most 500 nM. `Cc1nc(N2CCC(CC(=O)O)CC2)c2c(C)c(C)n(-c3c(C)cc(Br)cc3C)c2n1` [Compound 1-001, {1-[7-(4-bromo-2,6-dimethyl-phenyl)-2,5,6-trimethyl-7H-pyrrolo[2,3-d]pyrimidin-4-yl]-piperidin-4-yl}-acetic acid]: the IC50 was at most 500 nM. Regarding `Cc1cc(N2CCC(CC(=O)O)CC2)c2c(C)cn(-c3c(Br)cc(Cl)cc3Br)c2n1` [Compound 1-012, {1-[1-(2,6-dibromo-4-chloro-phenyl)-3,6-dimethyl-1H-pyrrolo[2,3-b]pyridin-4-yl]-piperidin-4-yl}-acetic acid], the IC50 is at most 500 nM.

On to `Cc1cc(N2CCC(CC(=O)O)CC2)c2c(C)cn(-c3ccc(Br)cc3Br)c2n1` [Compound 1-016, {1-[1-(2,4-dibromo-phenyl)-3,6-dimethyl-1H-pyrrolo[2,3-b]pyridin-4-yl]-piperidin-4-yl}-acetic acid], for which the IC50 was at most 500 nM.

Take `Cc1nc(N2CCC(CC(=O)O)CC2)c2c(C)cn(-c3c(C)cc(Br)cc3C)c2n1` [Compound 1-002, {1-[7-(4-bromo-2,6-dimethyl-phenyl)-2,5-dimethyl-7H-pyrrolo[2,3-d]pyrimidin-4-yl]-piperidin-4-yl}-acetic acid]: the IC50 was at most 500 nM.

With `Cc1cc(N2CCC(CC(=O)O)CC2)c2c(C)c(C)n(-c3c(C)cc(Cl)cc3C)c2n1` [Compound 1-005, {1-[1-(4-chloro-2,6-dimethyl-phenyl)-2,3,6-trimethyl-1H-pyrrolo[2,3-b]pyridin-4-yl]-piperidin-4-yl}-acetic acid], the IC50 was at most 500 nM. As for `Cc1cc(N2CCC(CCC(=O)O)CC2)c2c(C)cn(-c3c(Cl)cc(Cl)cc3Cl)c2n1` [Compound 1-026, 3-{1-[3,6-dimethyl-1-(2,4,6-trichloro-phenyl)-1H-pyrrolo[2,3-b]pyridin-4-yl]piperidin-4-yl}-propionic acid], the figure is at most 500 nM. As for `Cc1cc(N2CCC(CCC(=O)O)CC2)c2c(C)cn(-c3c(C)cc(Br)cc3C)c2n1` [Compound 1-020, 3-{1-[1-(4-bromo-2,6-dimethyl-phenyl)-3,6-dimethyl-1H-pyrrolo[2,3-b]pyridin-4-yl]-piperidin-4-yl}-propionic acid], the figure is at most 500 nM. On to `Cc1cc(N2CCC(CC(=O)O)CC2)c2c(C)c(C)n(-c3c(C)cc(Br)cc3C)c2n1` [Compound 1-003, {1-[1-(4-bromo-2,6-dimethyl-phenyl)-2,3,6-trimethyl-1H-pyrrolo[2,3-b]pyridin-4-yl]-piperidin-4-yl}-acetic acid], for which the IC50 was at most 500 nM.

`Cc1nc(N2CCC(CCC(=O)O)CC2)c2c(C)cn(-c3c(C)cc(Br)cc3C)c2n1` [Compound 1-018, 3-{1-[7-(4-bromo-2,6-dimethyl-phenyl)-2,5-dimethyl-7H-pyrrolo[2,3-d]pyrimidin-4-yl]-piperidin-4-yl}-propionic acid]: the IC50 was at most 500 nM. For `Cc1cc(N2CCC(CP(=O)(O)O)CC2)c2c(C)cn(-c3c(C)cc(Br)cc3C)c2n1` [Compound 1-045, {1-[1-(4-bromo-2,6-dimethyl-phenyl)-3,6-dimethyl-1H-pyrrolo[2,3-b]pyridin-4-yl]-piperidin-4-ylmethyl}-phosphonic acid], the IC50 is at most 500 nM. Turning to `Cc1cc(N2CCC(CCC(=O)O)CC2)c2c(C)cn(-c3c(Cl)cc(Br)cc3Cl)c2n1` [Compound 1-025, 3-{1-[1-(4-bromo-2,6-dichloro-phenyl)-3,6-dimethyl-1H-pyrrolo[2,3-b]pyridin-4-yl]-piperidin-4-yl}-propionic acid], the IC50 is at most 500 nM. In the case of `Cc1cc(N2CCC(CCS(=O)(=O)O)CC2)c2c(C)cn(-c3c(C)cc(Br)cc3C)c2n1` [Compound 1-048, 2-{1-[1-(4-bromo-2,6-dimethyl-phenyl)-3,6-dimethyl-1H-pyrrolo[2,3-b]pyridin-4-yl]-piperidin-4-yl}-ethanesulfonic acid], the IC50 is at most 500 nM. Turning to `Cc1cc(N2CCC(CCC(=O)O)CC2)c2c(C)c(C)n(-c3c(C)cc(Cl)cc3C)c2n1` [Compound 1-021, 3-{1-[1-(4-chloro-2,6-dimethyl-phenyl)-2,3,6-trimethyl-1H-pyrrolo[2,3-b]pyridin-4-yl]-piperidin-4-yl}-propionic acid], the IC50 is at most 500 nM. As to `Cc1cc(N2CCC(CC(=O)O)CC2)c2c(C)cn(-c3c(C)cc(Br)cc3C)c2n1` [Compound 1-004, {1-[1-(4-bromo-2,6-dimethyl-phenyl)-3,6-dimethyl-1H-pyrrolo[2,3-b]pyridin-4-yl]-piperidin-4-yl}-acetic acid], the IC50 is at most 500 nM. As for `Cc1cc(N2CCC(CS(=O)(=O)O)CC2)c2c(C)cn(-c3c(C)cc(Br)cc3C)c2n1` [Compound 1-047, {1-[1-(4-bromo-2,6-dimethyl-phenyl)-3,6-dimethyl-1H-pyrrolo[2,3-b]pyridin-4-yl]-piperidin-4-yl}-methanesulfonic acid], the figure is at most 500 nM; as for `Cc1cc(N2CCC(CCC(=O)O)CC2)c2c(C)cn(-c3c(Br)cc(Cl)cc3Br)c2n1` [Compound 1-027, 3-{1-[1-(2,6-dibromo-4-chloro-phenyl)-3,6-dimethyl-1H-pyrrolo[2,3-b]pyridin-4-yl]-piperidin-4-yl}-propionic acid], at most 500 nM; as for `Cc1cc(N2CCC(CCCC(=O)O)CC2)c2c(C)c(C)n(-c3c(C)cc(Br)cc3C)c2n1` [Compound 1-032, 4-{1-[1-(4-bromo-2,6-dimethyl-phenyl)-2,3,6-trimethyl-1H-pyrrolo[2,3-b]pyridin-4-yl]-piperidin-4-yl}-butyric acid], at most 500 nM.

Source of the values: patent US7951811B2, “Pyrrolo[2,3-D]pyrimidine derivatives substituted with a cyclic amino group” (Taisho Pharmaceutical Co., Ltd., priority 2004, dated 2011).
